Assay results taken from patent US4804676A, “Enkephalinase B inhibitors, their preparation, and pharmaceutical compositions containing the same” (Sankyo Company Limited, priority 1984, dated 1989).
Like-named read-outs stand apart in the source and are kept apart here.

Key:
Solubility = type: physicochemical
enkephalinase B [1] = molecular target: T1, enkephalinase B (Rattus norvegicus, UniProt O55096); assay: Inhibition of enkephalinase B, Ki by the method of Dixon (Tyr-Gly released from methionine-enkephalin, HPLC); type: biochemical; conditions: for Ki: enkephalinase B, pH 6.5, 37° C., methionine-enkephalin substrate, method of Dixon, read-out: Ki value (inhibition constant)
T1 construct: from tissue; host or cells: rat brain membrane, Triton X-100 solubilized, purified by DEAE chromatography, chromatofocusing and gel filtration
T1 sequence (O55096 2-738 limits assumed): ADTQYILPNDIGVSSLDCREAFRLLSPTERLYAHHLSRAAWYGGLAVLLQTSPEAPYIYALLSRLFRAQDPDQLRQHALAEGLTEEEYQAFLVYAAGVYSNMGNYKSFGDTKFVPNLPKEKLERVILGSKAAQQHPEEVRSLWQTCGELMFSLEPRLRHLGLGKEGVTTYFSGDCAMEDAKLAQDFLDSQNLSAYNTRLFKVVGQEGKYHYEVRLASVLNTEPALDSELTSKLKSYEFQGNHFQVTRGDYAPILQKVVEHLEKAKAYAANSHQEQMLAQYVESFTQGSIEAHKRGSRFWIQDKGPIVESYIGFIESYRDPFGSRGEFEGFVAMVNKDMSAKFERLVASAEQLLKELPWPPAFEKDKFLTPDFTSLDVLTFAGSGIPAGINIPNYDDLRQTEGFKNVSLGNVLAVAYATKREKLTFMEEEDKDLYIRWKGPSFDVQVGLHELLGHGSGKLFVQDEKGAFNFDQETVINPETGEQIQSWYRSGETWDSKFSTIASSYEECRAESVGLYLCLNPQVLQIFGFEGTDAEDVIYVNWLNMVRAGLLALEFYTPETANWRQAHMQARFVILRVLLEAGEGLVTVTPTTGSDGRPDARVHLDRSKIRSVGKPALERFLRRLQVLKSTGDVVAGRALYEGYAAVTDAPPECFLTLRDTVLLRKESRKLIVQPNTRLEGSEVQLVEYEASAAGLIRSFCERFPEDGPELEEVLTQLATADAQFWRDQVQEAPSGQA
Procedure: The presence of the desired substances, Propioxatins A and B, can be assessed quantitavely during the processes of cultivation and purification by measuring the enkephalinase B inhibition activity. To do this, methionine-enkephalin is incubated with an enkephalinase B solution containing the Propioxatin, and then the amount of the resulting product tyrosyl-glycine (Tyr-Gly) is estimated by chromatography (e.g. thin layer chromatography or high pressure liquid chromatography). A blank test without Propioxatin is also carried out, and the enkephalinase B inhibition constant is determined. The enkephalinase B solution used for this technique can be prepared from rat brain by generally-known enzyme purification methods. Since enkephalinase B exists in rat brain as a membrane-bound enzyme, it is released from the membrane and made soluble using a detergent such as Triton X-100. The solubilized enzyme is then subjected to a combination of purification processes such as ion-exchange chromatography in which various kinds of ion-exchangers having a diethylaminoethyl (DEAE) group can be used, gel filtration using a molecular sieve, or isoelectric fractionation to obtain the purified enkephalinase B. These methods are described in greater detail hereinafter in the Examples.
(§1) 100 g of rat brain was homogenized using 1 liter of 50 mM tris-HCl buffer (pH 7.7) and the homogenate was centrifuged at 50,000 G for 15 minutes to give a precipitate. The precipitate was washed three times and centrifuged as before. It was then suspended in 500 ml of the same buffer containing 1% of Triton X-100, and kept at 37° C. for 1 hour. The suspension was centrifuged at 100,000 G for 1 hour to give a crude enzyme solution of enkephalinase B as supernatant.
(§2) The thus obtained crude enzyme solution was dialyzed against a 5 mM sodium phosphate buffer (pH 7.0) and was applied for adsorption to a column (3.0×30 cm) of DEAE-Sephacel (produced by Pharmacia Co. Ltd.) previously equilibrated with the same buffer containing 1% Triton X-100 (solution A). The column was washed with solution A and eluted with 2.5 liters of solution A and with 2.5 liters of solution A which contains 0.4M sodium chloride by the linear concentration gradient method.
(§3) The obtained fraction of enkephalinase B was dialyzed against solution A, and was applied for adsorption to a column (1.6×27 cm) of DEAE-Toyopearl 670S (produced by Toyo Soda Kogyo K.K.) previously equilibrated with solution A. Elution was carried out using 500 ml of solution A and 500 ml of a solution of 0.4M sodium chloride dissolved in solution A by the linear concentration gradient method. […]

enkephalinase B [2] = molecular target: T1, enkephalinase B; assay: Enkephalinase B inhibition IC50, method of Parker and Waud, substrate 0.1 mM methionine-enkephalin; type: biochemical
Procedure: as §1
The thus obtained crude enzyme solution was dialyzed against a 5 mM sodium phosphate buffer (pH 7.0) and was applied for adsorption to a column (3.0×30 cm) of DEAE-Sephacel (produced by Pharmacia Co. Ltd.) previously equilibrated with the same buffer containing 1% Triton X-100 (solution A). The column was washed with solution A and eluted with 2.5 liters of solution A and with 2.5 liters of solution A which contains 0.4M sodium chloride by the linear concentration gradient method. […]
A mixture of 40 μl of 0.1M sodium phosphate buffer (pH 6.5), 10 μl of a Propioxatin A solution and 40 μl of an enkephalinase B solution was incubated at 37° C. for 5 minutes, then 10 μl of a 1 mM or 10 mM methionine-enkephalin solution were added, followed by stirring at 37° C. for 20 minutes. The reaction was then stopped by adding 10 μl of 2N hydrochloric acid to the reaction mixture, and the amount of tyrosyl-glycine (Tyr-Gly) produced (Vi) with respect to 20 μl of the reaction mixture was determined by high pressure liquid chromatography. Similarly, the amount of tyrosyl-glycine produced (V) in a blank test, in which no Propioxatin was contained and only a buffer was used, was measured. […]
By way of comparison, the enkephalinase B inhibition activity was also measured for the compound N-[3-(N-hydroxycarbamoyl)-2-benzylpropanoyl]alanine, which is a compound within formula (I) of the above-mentioned French patent specification No. 2 518 088 (Japanese laid-open application No. 58-150547). […]

rat = assay: Analgesic action by the Randall-Selitto method after administration into the cerebral ventricle; type: in vivo
Procedure: Propioxatin A (10 μg) and enkephalin (1 mg) were administered simultaneously into the cereberal ventricle of a rat and the analgesic action thereof was examined by the Randall-Selitto method (Randall, L. D. and Selitto, J. J.; Arch. Int. Pharmacodyn. 111, 409-419 (1957)). The same quantities of Propioxatinn A and enkephalin were also administered separately, as controls.

enkephalinase B [3] = molecular target: T1, enkephalinase B; assay: Enzymatic properties of purified enkephalinase B (Michaelis constant); type: biochemical; conditions: purified rat brain enkephalinase B
Procedure: as §1, §2, §3

[4] = enkephalin 1 mg, Propioxatin A 10 μg

Structure (SMILES) | Solubility in ethanol and acetone (Solubility) | Solubility in ethyl acetate, chloroform, benzene and ether (Solubility) | Solubility in water, methanol and dimethyl sulfoxide (Solubility) | type of inhibition of enkephalinase B (enkephalinase B [1]) | Ki (enkephalinase B [1]) | further results
CC(C)C[C@H](CC(=O)NO)C(=O)N1CCC[C@H]1C(=O)N[C@H](C(=O)O)C(C)C [Propioxatin B] | slightly soluble | insoluble | Soluble | competitive inhibitor | 110 nM | 
CCC[C@H](CC(=O)NO)C(=O)N1CCC[C@H]1C(=O)N[C@H](C(=O)O)C(C)C [Propioxatin A] | slightly soluble | insoluble | Soluble | competitive inhibitor | 13 nM | IC50 (enkephalinase B [2]; enkephalinase B, substrate 0.1 mM methionine-enkephalin, read-out: IC50 (converted)): 29.9 nM; more active than the prior art compound (enkephalinase B [2]; ratio to the compound of FR 2 518 088, enkephalinase B IC50): approximately 1,000; analgesic effect (rat; Propioxatin A 10 μg injected alone): No appreciable analgesic effect; prolonging the analgesic action of enkephalin (rat; Propioxatin A 10 μg with enkephalin 1 mg): significantly effective
C[C@H](NC(=O)C(CC(=O)NO)Cc1ccccc1)C(=O)O (stereo partly drawn) [Compound of FR 2 518 088, N-[3-(N-hydroxycarbamoyl)-2-benzylpropanoyl]alanine, reference compound] |  |  |  |  |  | IC50 (enkephalinase B [2]): 44200 nM
CSCC[C@H](NC(=O)[C@H](Cc1ccccc1)NC(=O)CNC(=O)CNC(=O)[C@@H](N)Cc1ccc(O)cc1)C(=O)O [Methionine-enkephaline, Tyr-Gly-Gly-Phe-Met] |  |  |  |  |  | Km value relative to Methionine-enkephaline (Michaelis constant) (enkephalinase B [3]): 53 µM
CC(C)C[C@H](NC(=O)[C@H](Cc1ccccc1)NC(=O)CNC(=O)CNC(=O)[C@@H](N)Cc1ccc(O)cc1)C(=O)O [enkephalin] |  |  |  |  |  | time for analgesic effect to fall to 50% of its peak value (rat; [4]): about 30 minutes; time of peak value of analgesic effect after injection (rat; [4]): approximately 10 minutes
